Assay results reported in PubChem BioAssay AID588639 (Sanford-Burnham Center for Chemical Genomics, 2011).
Several values for one entry are separate records, joined by “and”; a condition that tells them apart may be missing. Equal entries are not always repeated. Activity calls are given as the source filed them. No rule for the calls is given here.

Biological target: Alkaline phosphatase, tissue-nonspecific isozyme (Homo sapiens) (UniProt P05186)
Experiment: human TNAP enzyme inhibitors, SAR follow-up, selectivity assay for mouse IAP inhibitor project, biochemical, set 2 (AID 588639)
Conditions: purified human TNAP enzyme activity, counter-screen for mouse IAP

Sequence of Alkaline phosphatase, tissue-nonspecific isozyme (Homo sapiens) (P05186 whole entry, looked up): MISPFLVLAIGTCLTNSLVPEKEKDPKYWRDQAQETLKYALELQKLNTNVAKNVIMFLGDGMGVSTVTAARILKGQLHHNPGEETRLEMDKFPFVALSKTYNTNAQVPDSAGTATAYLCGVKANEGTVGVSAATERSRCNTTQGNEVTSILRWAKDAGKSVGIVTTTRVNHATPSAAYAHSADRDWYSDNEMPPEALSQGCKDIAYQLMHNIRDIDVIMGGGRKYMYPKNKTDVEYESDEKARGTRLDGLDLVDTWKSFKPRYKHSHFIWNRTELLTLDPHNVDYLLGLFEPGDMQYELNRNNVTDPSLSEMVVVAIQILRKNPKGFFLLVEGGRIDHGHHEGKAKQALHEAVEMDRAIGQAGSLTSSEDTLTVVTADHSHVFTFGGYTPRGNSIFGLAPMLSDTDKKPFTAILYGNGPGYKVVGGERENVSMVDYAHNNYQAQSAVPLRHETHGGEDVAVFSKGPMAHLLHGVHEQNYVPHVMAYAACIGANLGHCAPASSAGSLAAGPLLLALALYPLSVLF

Compound	IC50
Cc1ccc(C)c(NC(=O)CCNS(=O)(=O)c2ccc3[nH]c(=O)oc3c2)c1	> 100 µM (inactive)
N#Cc1cccc(CNC(=O)CCNS(=O)(=O)c2ccc3[nH]c(=O)oc3c2)c1	> 100 µM (inactive)
Cc1ccc(CNC(=O)CCNS(=O)(=O)c2ccc3[nH]c(=O)oc3c2)cc1	> 100 µM (inactive)
O=C(N/N=C/c1c(F)cccc1Cl)c1cc(O)c(O)c(O)c1	> 100 µM (inactive)
CC(C)Oc1ccc(CNC(=O)C2CCCN(S(=O)(=O)c3ccc4[nH]c(=O)oc4c3)C2)cc1 (centres undefined)	> 100 µM (inactive)
O=C(CCNS(=O)(=O)c1ccc2c(c1)CCC2)NCCc1ccc2c(c1)OCO2	> 100 µM (inactive)
COc1ccc(CNC(=O)CNS(=O)(=O)c2ccc3[nH]c(=O)oc3c2)c(OC)c1	> 100 µM (inactive)
O=C(CCNS(=O)(=O)c1ccc2[nH]c(=O)oc2c1)NCCc1ccc(O)cc1	> 100 µM (inactive)
COc1ccc(OC)c(NC(=O)CCNS(=O)(=O)c2ccc3c(c2)oc(=O)n3C)c1	> 100 µM (inactive)
COc1cccc(CNS(=O)(=O)c2ccc3[nH]c(=O)oc3c2)c1	> 100 µM (inactive)
COc1ccc(NC(=O)CCNS(=O)(=O)c2ccc3ccccc3c2)cc1OC	> 100 µM (inactive)
COc1ccc(CNC(=O)CCCNS(=O)(=O)c2ccc3[nH]c(=O)oc3c2)cc1OC	> 100 µM (inactive)
CCOc1cc(C(=O)N/N=C/c2ccccc2F)cc(OCC)c1OCC	> 100 µM (inactive)
CCc1ccc(NC(=O)CCNS(=O)(=O)c2ccc3c(c2)oc(=O)n3C)cc1	> 100 µM (inactive)
O=C(N/N=C/c1ccc(F)c(Br)c1)c1cc(O)c(O)c(O)c1	> 100 µM (inactive)
COc1cc(/C=N/NC(=O)c2cc(O)c(O)c(O)c2)ccc1O	> 100 µM (inactive)
CC(=NNC(=O)c1ccccc1OCCOc1ccccc1)c1ccccc1F	> 100 µM (inactive)
Cc1ccccc1CNC(=O)C1CCCN(S(=O)(=O)c2ccc3[nH]c(=O)oc3c2)C1 (centres undefined)	> 100 µM (inactive)
COc1ccc(CNC(=O)CCNS(=O)(=O)c2ccc3c(c2)CCC3)c(OC)c1	> 100 µM (inactive)
O=C(N/N=C/c1cc(Br)ccc1F)c1ccc(O)cc1	> 100 µM (inactive)
O=C(N/N=C/c1c(F)cccc1F)c1ccc(O)cc1	> 100 µM (inactive)
Cc1ccc(C)c(CNC(=O)C2CCCN(S(=O)(=O)c3ccc4[nH]c(=O)oc4c3)C2)c1 (centres undefined)	> 100 µM (inactive)
COc1ccc(CNC(=O)CNS(=O)(=O)c2ccc3[nH]c(=O)oc3c2)cc1	> 100 µM (inactive)
O=c1[nH]c2ccc(S(=O)(=O)Nc3ccc4c(c3)OCO4)cc2o1	> 100 µM (inactive)
C/C(=N\NC(=O)c1cc(O)c(O)c(O)c1)c1ccc(O)cc1O	> 100 µM (inactive)
COc1ccc(NS(=O)(=O)c2ccc3[nH]c(=O)oc3c2)cc1OC	> 100 µM (inactive)
O=C(CCNS(=O)(=O)c1ccc2[nH]c(=O)oc2c1)NCc1ccccc1	> 100 µM (inactive)

Compound	IC50
COc1ccc(CNC(=O)C2CCCN(S(=O)(=O)c3ccc4[nH]c(=O)oc4c3)C2)cc1 (centres undefined)	> 100 µM (inactive)
Cc1ccc(C)c(NC(=O)CCNS(=O)(=O)c2ccc3c(c2)CCC3)c1	> 100 µM (inactive)
COc1ccc(C(=O)N/N=C/c2c(F)cccc2Cl)cc1OC	> 100 µM (inactive)
O=C(CCS(=O)(=O)Nc1ccc2[nH]c(=O)oc2c1)NCc1ccccc1Cl	> 100 µM (inactive)
O=C(CCCNS(=O)(=O)c1ccc2[nH]c(=O)oc2c1)NCc1ccccc1Cl	80.9 µM and > 100 µM (inactive)
CSc1cccc(NC(=O)CCNS(=O)(=O)c2ccc3c(c2)oc(=O)n3C)c1	> 100 µM (inactive)
O=C(CCCNS(=O)(=O)c1ccc2[nH]c(=O)oc2c1)NCc1ccc2c(c1)OCO2	> 100 µM (inactive)
O=C(NCc1ccc(F)cc1)C1CCCN(S(=O)(=O)c2ccc3[nH]c(=O)oc3c2)C1 (centres undefined)	> 100 µM (inactive)
N#Cc1cccc(NC(=O)CNS(=O)(=O)c2ccc3[nH]c(=O)oc3c2)c1	> 100 µM (inactive)
O=C(N/N=C/c1ccccc1F)c1ccccc1OCc1ccccc1	> 100 µM (inactive)
O=C(CCNS(=O)(=O)c1ccc2[nH]c(=O)oc2c1)Nc1ccc2c(c1)OCO2	> 100 µM (inactive)
COc1ccc(CNS(=O)(=O)c2ccc3[nH]c(=O)oc3c2)c(OC)c1	> 100 µM (inactive)
O=c1[nH]c2ccc(S(=O)(=O)NCCc3ccc4c(c3)OCO4)cc2o1	> 100 µM (inactive)
O=C(N/N=C/c1ccc(Br)cc1F)c1cc(O)ccc1O	> 100 µM (inactive)
N#Cc1ccc(NS(=O)(=O)c2ccc3[nH]c(=O)oc3c2)cc1	> 100 µM (inactive)
COc1ccc(NC(=O)CCCNS(=O)(=O)c2ccc3[nH]c(=O)oc3c2)cc1OC	> 100 µM (inactive)
Cc1cc(NC(=O)CCNS(=O)(=O)c2ccc3[nH]c(=O)oc3c2)ccc1Br	> 100 µM (inactive)
Cc1ccc(NC(=O)CCNS(=O)(=O)c2ccc3c(c2)oc(=O)n3C)cc1C	> 100 µM (inactive)
Cc1ccccc1CNC(=O)CCCNS(=O)(=O)c1ccc2[nH]c(=O)oc2c1	> 100 µM (inactive)
COc1ccc(C(=O)N/N=C/c2ccccc2F)cc1	> 100 µM (inactive)
COc1ccc(/C=N/NC(=O)c2cc(O)c(O)c(O)c2)cc1OC	> 100 µM (inactive)
COc1cccc(CNC(=O)CCNS(=O)(=O)c2ccc3[nH]c(=O)oc3c2)c1	> 100 µM (inactive)
Cc1ccc(C)c(NS(=O)(=O)c2ccc3[nH]c(=O)oc3c2)c1	> 100 µM (inactive)
CC(C)c1ccc(NC(=O)CCNS(=O)(=O)c2ccc3c(c2)oc(=O)n3C)cc1	> 100 µM (inactive)
COc1ccc(CNC(=O)CCNS(=O)(=O)c2ccc3[nH]c(=O)oc3c2)c(OC)c1	> 100 µM (inactive)
COc1cccc(C(=O)N/N=C/c2ccccc2F)c1	> 100 µM (inactive)
O=C(N/N=C/c1ccc(F)cc1F)c1ccc(O)cc1	> 100 µM (inactive)
